Assay: Solubility of celecoxib and valdecoxib in various solvent liquids
Type: physicochemical
Experimental: Aliquots of a solvent liquid were then added dropwise in approximately 100 mg increments to the solid sample. The resulting mixture was vortexed and/or sonicated between aliquot additions. […] Solubility values preceded by the < symbol denote that, at the particular concentration shown, the mixture was still cloudy, i.e., not all of the drug was fully in dissolved form.

[1] = Labrasol ™ /DGME/propylene glycol laurate 40:40:20 w/w
[2] = Polyethylene glycol 400/water 1:1 w/w
[3] = Polyethylene glycol 400/water 2:1 w/w
[4] = Propylene glycol laurate/Labrasol ™ 1:1 w/w
[5] = Tagat ™ TO/Capmul ™ MCM 1:1 w/w

Solubility (Capmul ™ MCM)	Solubility (DGME/water 1:1 w/w)	Solubility (DGME/water 2:1 w/w)	Solubility (Labrasol ™)	Solubility [1]	Solubility (Polyethylene glycol 400)	Solubility [2]	Solubility [3]	Solubility (Propylene glycol)	Solubility (Propylene glycol laurate)	Solubility [4]	Solubility (Tagat ™ TO)	Solubility [5]	Structure (SMILES)	other results
19 − 21 mg/g	3 mg/g	42 mg/g	64 mg/g	288 − 297 mg/g	304 mg/g	<1 mg/g	6 mg/g	23 − 41 mg/g	18 mg/g	58 mg/g	24 − 40 mg/g	34 − 52 mg/g	Cc1ccc(-c2cc(C(F)(F)F)nn2-c2ccc(S(N)(=O)=O)cc2)cc1 [celecoxib]	Solubility (Arlacel ™ 186): 13 mg/g; Solubility (Cremophor ™ EL): 36 mg/g; Solubility (Ethyl caprylate): 25 mg/g; Solubility (Labrasol ™ /DGME 1:1 w/w): 335 mg/g; Solubility (Labrasol ™ /DGME/propylene glycol laurate 35:35:30 w/w): 266 mg/g; Solubility (Labrasol ™ /DGME/propylene glycol laurate 45:45:10 w/w): 313 − 325 mg/g; Solubility (Miglyol ™ 812): 6 − 12 mg/g; Solubility (Polysorbate 80): 73 mg/g; Solubility (Tagat ™ /Capmul ™ MCM/DGME 35:35:30 w/w): 212 mg/g; Solubility (Tagat ™ /Capmul ™ MCM/DGME 58:12:30 w/w): 274 mg/g; Solubility (Tetraethylene glycol dimethyl ether): 188 mg/g; Solubility (Triethylene glycol monoethyl ether): 170 mg/g
13 mg/g	6 mg/g	32 mg/g	34 mg/g	130 mg/g	50 − 85 mg/g	1 mg/g	13 mg/g	10 − 20 mg/g	22 mg/g	42 mg/g	23 mg/g	24 mg/g	Cc1onc(-c2ccccc2)c1-c1ccc(S(N)(=O)=O)cc1 [valdecoxib]	Advantage in solubility for DGME over propylene glycol: approximately tenfold; Solubility (Diethylene glycol monoethyl ether (DGME)): 120 mg/g

From patent publication US20020077328A1, “Selective cyclooxygenase-2 inhibitors and vasomodulator compounds for generalized pain and headache pain” (priority 2000, published 2002)
